According to patent US20250205234A1, “ANTI-TUBERCULAR COMPOSITIONS” (priority 2022, published 2025):
Converted amounts (≈) assume the structure as drawn. Read-outs that look alike come from different tables or passages of the source.

Tests used:
[1] = tested on: M. smegmatis F-ATP synthase; type: biochemical; conditions: for Inhibition of ATP synthesis of reconstituted MsF-ATP synthase: compound at its IC50 concentration (BDQ 4 nM; GaMF1.39 90 nM)
P. aeruginosa PAO1 WT = assay: Biofilm assay, P. aeruginosa; type: cell-based, Pseudomonas aeruginosa; conditions: 3 h pre-formed biofilm; 3-9 μM GaMF1.39 or 1-3 μM BDQ; PBS or M9 glucose media
E. coli UTI 189 = assay: Biofilm assay, E. coli; type: cell-based, Escherichia coli; conditions: 3 h pre-formed biofilm; 3-9 μM GaMF1.39 or 1-3 μM BDQ; PBS or M9 glucose media
M. bovis BCG [2] = assay: microbe, parasite or virus in culture; type: cell-based; conditions: for MIC: Mycobacterium tuberculosis variant bovis BCG, BCG
M. bovis BCG [3] = assay: microbe, parasite or virus in culture; type: cell-based; conditions: Mycobacterium tuberculosis variant bovis BCG, 120 h, read-out: minimal inhibitory concentration (MIC50)
M. bovis BCG cells = assay: microbe, parasite or virus in culture; type: cell-based; conditions: Mycobacterium tuberculosis variant bovis BCG, read-out: IC50 intracellular ATP inhibition
M. bovis BCG [4] = type: cell-based; conditions: 7 μM, 96 h, methylene blue
[5] = tested on: transmembrane pH gradient of mycobacterial IMVs; assay: Proton translocation / uncoupling assay in IMVs (ACMA fluorescence quenching); type: biochemical, M. smegmatis; conditions: 2 mM NADH, uncoupler SF6847 as positive control
[6] = biological target: M. smegmatis 166M c-subunit mutant IMVs (Mycolicibacterium smegmatis, UniProt A0R201+A0R205+A0R206, I70M); assay: biochemical; conditions: read-out: IC50 ATP synthesis, 166M mutant IMVs
M. bovis BCG [7] = type: cell-based
M. smegmatis mc^2 155 = type: cell-based
zebrafish embryos = assay: Toxicity testing using zebrafish embryos; type: in vivo; conditions: 9 μM, 48 hpf embryos, 5 days
Experimental: Zebrafish care and ethics statement: All Zebrafish experiments were approved by the NTU Institutional Animal Care and Use Committee under reference no #A20038. Experiments were done using wild-type AB zebrafish. The ages of the embryos are shown in hours post fertilization (hpf).
Dechorionated zebrafish wild-type embryos at 48 hpf (n=120) were used. The embryos were immersed respectively in 5 ml of E3 medium containing GaMF1.39 in 6-well plate for 5 days. DMSO was used as vehicle control. The embryos were observed under a microscope. […] The experiment was repeated twice with three replicates each.

[8] = Microsomal stability assay; type: in vitro ADME; conditions: pH 7.4; mouse liver microsomes
Experimental: Microsomal stability assay were outsourced and performed by Bioduro-Sundia Ltd, USA based on the following protocol as done in Obach, R. S., Drug Metab. Dispos., 1999, 27, 1350; McGinnity, D. F. & Riley, R. J., Biochem. Soc. Trans., 2001, 29, 135. Working solutions of each compound are prepared from 10 mM stock solution in DMSO diluted to a final concentration of 100 μM in 0.05 M phosphate buffer (pH 7.4). Aliquots of Liver Microsome working solution are transferred into 1.1 mL tubes using a multichannel pipette. Positive control (5 mixed) and test compound working solutions are transferred into the tubes. The mixtures are vortexed gently and then pre-incubated at 37° C. 5 mM NADPH were aliquoted into the tubes using a multichannel pipette and vortexed gently. At each time point of 0 min, 5 min, 15 min, 30 min and 60 min with NADPH or 0, 30 min and 60 min without NADPH, an aliquot is removed from each tube. […] Each compound is analyzed by reversed phase HPLC using a Kinetex 2.6μ C18 100 Å column (3.0 mm×30 mm, Phenomenex). […] The amount of parent compound is determined on the basis of the peak area ratio (compound area to IS area) for each time point. The estimation of Clint (in μL/min/mg protein) is calculated using the following equation: CLint (μLmin^−1 mg^−1)=ln(2)*1000/t1/2/protein concentration

Mtb = conditions: Hotra et al. 2020; cited from earlier work
[9] = biological target: mycobacterial F-ATP synthase (Mycobacterium bovis, UniProt A1KI93+A1KI97); conditions: read-out: IC50 NADH-driven ATP synthesis of IMVs, IMVs of M. bovis BCG; cited from earlier work
[10] = tested on: mycobacterial F-ATP synthase; conditions: IMVs of M. smegmatis, NADH; read-out: IC50 NADH-driven ATP synthesis of IMVs; cited from earlier work
[11] = tested on: M. tuberculosis H37Rv-infected THP-1 cells; assay: THP-1 macrophage infection model, intracellular efficacy

Chain of mycobacterial F-ATP synthase (Mycobacterium bovis, UniProt A1KI93+A1KI97) (A1KI93 whole entry, looked up): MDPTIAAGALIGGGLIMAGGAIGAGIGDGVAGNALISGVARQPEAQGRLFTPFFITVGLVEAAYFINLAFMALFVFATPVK
Chain of mycobacterial F-ATP synthase (Mycobacterium bovis, UniProt A1KI93+A1KI97) (A1KI97 whole entry, looked up): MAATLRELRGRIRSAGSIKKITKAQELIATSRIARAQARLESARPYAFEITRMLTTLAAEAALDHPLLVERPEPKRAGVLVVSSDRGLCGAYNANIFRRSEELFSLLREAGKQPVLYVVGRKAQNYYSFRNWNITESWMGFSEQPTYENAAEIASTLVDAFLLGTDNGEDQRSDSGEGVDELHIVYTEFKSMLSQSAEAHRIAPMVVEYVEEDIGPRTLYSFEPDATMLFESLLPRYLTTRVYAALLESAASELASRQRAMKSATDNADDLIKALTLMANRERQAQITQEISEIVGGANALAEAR

Q: With `COc1nc2ccc(Br)cc2cc1[C@@H](c1ccccc1)[C@@](O)(CCN(C)C)c1cccc2ccccc12` [BDQ, bedaquiline, reference compound] as the compound, how does the “Inhibition of ATP synthesis of reconstituted MsF-ATP synthase” value [1] read?
A: ~51%

Q: And the “Killing of planktonic or biofilm cells” value (P. aeruginosa PAO1 WT)?
A: No significant differences

Q: And the “Killing of planktonic or biofilm cells” value (E. coli UTI 189)?
A: No significant differences

Q: For `CC(C)/N=c1\cc2n(-c3ccc(Cl)cc3)c3ccccc3nc-2cc1Nc1ccc(Cl)cc1` [Clofazamine, clofazimine], which “MIC Drug B alone” value (M. bovis BCG [2]; Clofazamine alone) is on record?
A: 0.25 µM (≈ 0.118 µg/mL)

Q: What about the “MIC Drug B in combination” value (M. bovis BCG [2]; Clofazamine in combination with GaMF1.39) of the same compound?
A: 0.125 µM

Q: Which MIC50 (M. bovis BCG [3]) does the source give for `CCNc1cc(C)nc(Nc2ccc3nc(-c4ccc(Cl)cc4)[nH]c3c2)n1` [GaMF1.39] here?
A: 6.8 µM (≈ 2.58 µg/mL)

Q: And the IC50 (M. bovis BCG cells)?
A: 3300 nM

Q: What about the “Oxygen consumption within the respiratory chain” value (M. bovis BCG [4]) of the same compound?
A: unaffected

Q: And the “Uncoupled proton pumping (ACMA quenching)” value [5]?
A: lacked the ability to induce uncoupled proton pumping

Q: And the IC50 [6]?
A: 64 nM

Q: And the “ATP synthesis activity of reconstituted MsF-ATP synthase with compound” value ([1]; GaMF1.39 at its IC50 concentration, no compound 35.2±2.3)?
A: 20.5±2.6 nmol·min^−1 (mg protein)^−1

Q: What about the “Inhibition of ATP synthesis of reconstituted MsF-ATP synthase” value [1] of the same compound?
A: 42%

Q: What about the “Killing efficiency against M. bovis BCG” value (M. bovis BCG [7]; 8-fold its MIC50, up to 6 days, CFU) of the same compound?
A: more efficient than its parental molecule GaMF1

Q: What about the “Growth of M. bovis BCG cultures in killing kinetics experiment” value (M. bovis BCG [7]; GaMF1.39 10×MIC50, with or without Q203 100 nM, t=10 days) of the same compound?
A: inhibited the growth of M. bovis cells even after 10 days

Q: What about the “Killing of M. smegmatis mc^2 155” value (M. smegmatis mc^2 155) of the same compound?
A: killed

Q: What about the “Toxicity in zebrafish embryos (survival)” value (zebrafish embryos) of the same compound?
A: no signs of toxicity-induced killing

Q: And the “Killing of planktonic or biofilm cells” value (P. aeruginosa PAO1 WT)?
A: no killing of planktonic or biofilm cells

Q: And the “Killing of planktonic or biofilm cells” value (E. coli UTI 189)?
A: no killing of planktonic or biofilm cells

Q: What about the half-life [8] of the same compound?
A: 29.6 min

Q: And the microsomal CLint [8]?
A: 46.8 µL/min/mg

Q: What about the “MIC Drug A in combination” value (M. bovis BCG [2]; GaMF1.39 in combination with Clofazamine) of the same compound?
A: 3 µM

Q: And the “MIC Drug A in combination” value (M. bovis BCG [2]; GaMF1.39 in combination with Q203)?
A: 0.23 µM

Q: And the MIC (M. bovis BCG [2]; 144 h, read-out: MIC Drug A alone)?
A: 6.8 µM (≈ 2.58 µg/mL)

Q: And the “MIC50 against Mtb” value (Mtb)?
A: 3.0 µM (≈ 1.14 µg/mL)

Q: And the IC50 [9]?
A: 51.6 ± 1.35 nM

Q: What about the IC50 [10] of the same compound?
A: 90 ± 1.1 nM

Q: What about the “Intracellular efficacy, viable bacterial count (CFU/ml)” value ([11]; 3 and 9 μM, compared with initial inoculum (day 0)) of the same compound?
A: showed a decrease in viable bacterial count

Q: What about the “Alteration of infected macrophages (microscopy)” value ([11]; THP-1 macrophages treated with GaMF1.39) of the same compound?
A: did not show any visible optical alteration of the membrane, cell form or cell size

Q: With `CCc1nc2ccc(Cl)cn2c1C(=O)NCc1ccc(N2CCC(c3ccc(OC(F)(F)F)cc3)CC2)cc1` [Q203, Telacebec] as the compound, how does the MIC (M. bovis BCG [2]; read-out: MIC Drug B alone) read?
A: 0.001 µM (≈ 0.000557 µg/mL)

Q: And the “MIC Drug B in combination” value (M. bovis BCG [2]; Q203 in combination with GaMF1.39)?
A: 0.0005 µM
